Experiments:
[1] = Distribution coefficient in n-heptane/isopropanol/water phase system; format: physicochemical; settings: lighter phase about 90% n-heptane/10% isopropanol; heavier phase about 32% isopropanol/68% water
Excerpt: The present applicants have found an n-heptane/isopropanol/water system to be effective for purifying 33-epi-chloro-33-desoxyascomycin. In one embodiment, the following phase system is used to purify 33-epi-chloro-33-desoxyascomycin: the lighter phase comprises a mixture in weight-% of about 90% n-heptane, e.g. 89%, and about 10% isopropanol, e.g. 11%; the heavier hase comprises a mixture of about 32% isopropanol, e.g. 31%, and about 68% water, e.g. 69%.
The distribution coefficient is defined herein as the ratio of the concentration (in g/unit volume) of product in the lighter phase to the concentration (in g/unit volume) of product in the heavier aqueous phase at 40° C. The following distribution coefficients are obtained for cyclosporins between 75% n-heptane /25% acetone as lighter organic phase, and 50% acetone 50% water as heavier aqueous phase:
The distribution coefficient for 33-epi-chloro-33-desoxyascomycin is found to be around 7.6 using the above n-heptane/isopropanol/water phase system. The selectivity of ascomycin derivative side product to 33-epi-chloro-33-desoxyascomycin is found to be approximately 1.44.

[2] = Distribution coefficient of cyclosporins between lighter organic phase and heavier aqueous phase (n-heptane/acetone/water); format: physicochemical; settings: conc. in lighter phase / conc. in heavier aqueous phase at 40° C.; 75% n-heptane/25% acetone vs 50% acetone/50% water
Experimental: The distribution coefficient is defined herein as the ratio of the concentration (in g/unit volume) of product in the lighter phase to the concentration (in g/unit volume) of product in the heavier aqueous phase at 40° C.

Row | Distribution coefficient [1] | Structure (SMILES) | Distribution coefficient (to one decimal place) [2]
1 | around 7.6 | CC[C@@H]1/C=C(\C)C[C@H](C)C[C@H](OC)[C@H]2O[C@@](O)(C(=O)C(=O)N3CCCC[C@H]3C(=O)O[C@H](/C(C)=C/[C@@H]3CC[C@H](Cl)[C@H](OC)C3)[C@H](C)[C@@H](O)CC1=O)[C@H](C)C[C@@H]2OC [33-epi-chloro-33-desoxyascomycin] | –
2 | – | C/C=C/C[C@@H](C)[C@@H](O)[C@H]1C(=O)N[C@@H](C)C(=O)N(C)CC(=O)N(C)[C@@H](CC(C)C)C(=O)N[C@@H](C(C)C)C(=O)N(C)[C@@H](CC(C)C)C(=O)N[C@@H](C)C(=O)N[C@H](C)C(=O)N(C)[C@@H](CC(C)C)C(=O)N(C)[C@@H](CC(C)C)C(=O)N(C)[C@@H](C(C)C)C(=O)N1C [Cyclosporin B] | 0.4
3 | – | C/C=C/C[C@@H](C)[C@@H](O)[C@H]1C(=O)N[C@@H]([C@@H](C)O)C(=O)N(C)CC(=O)N(C)[C@@H](CC(C)C)C(=O)N[C@@H](C(C)C)C(=O)N(C)[C@@H](CC(C)C)C(=O)N[C@@H](C)C(=O)N[C@H](C)C(=O)N(C)[C@@H](CC(C)C)C(=O)N(C)[C@@H](CC(C)C)C(=O)N(C)[C@@H](C(C)C)C(=O)N1C [Cyclosporin C] | 0.3
4 | – | C/C=C/C[C@@H](C)[C@@H](O)[C@H]1C(=O)N[C@@H](C(C)C)C(=O)N(C)CC(=O)N(C)[C@@H](CC(C)C)C(=O)N[C@@H](C(C)C)C(=O)N(C)[C@@H](CC(C)C)C(=O)N[C@@H](C)C(=O)N[C@H](C)C(=O)N(C)[C@@H](CC(C)C)C(=O)N(C)[C@@H](CC(C)C)C(=O)N(C)[C@@H](C(C)C)C(=O)N1C [Cyclosporin D] | 1.7
5 | – | CCCC[C@@H](C)[C@@H](O)[C@H]1C(=O)N[C@@H](CC)C(=O)N(C)CC(=O)N(C)[C@@H](CC(C)C)C(=O)N[C@@H](C(C)C)C(=O)N(C)[C@@H](CC(C)C)C(=O)N[C@@H](C)C(=O)N[C@H](C)C(=O)N(C)[C@@H](CC(C)C)C(=O)N(C)[C@@H](CC(C)C)C(=O)N(C)[C@@H](C(C)C)C(=O)N1C [Cyclosporin Dihydro-A, dihydro-Cyclosporin A] | 1.0
6 | – | C/C=C/C[C@@H](C)[C@@H](O)[C@H]1C(=O)N[C@@H](CCC)C(=O)N(C)CC(=O)N(C)[C@@H](CC(C)C)C(=O)N[C@@H](C(C)C)C(=O)N(C)[C@@H](CC(C)C)C(=O)N[C@@H](C)C(=O)N[C@H](C)C(=O)N(C)[C@@H](CC(C)C)C(=O)N(C)[C@@H](CC(C)C)C(=O)N(C)[C@@H](C(C)C)C(=O)N1C [Cyclosporin G] | 1.3
7 | – | C/C=C/C[C@@H](C)[C@@H](O)[C@@H]1NC(=O)[C@H](C(C)C)N(C)C(=O)[C@H](CC(C)C)N(C)C(=O)[C@H](CC(C)C)N(C)C(=O)[C@@H](C)NC(=O)[C@H](C)NC(=O)[C@H](CC(C)C)N(C)C(=O)[C@H](C(C)C)NC(=O)[C@H](CC(C)C)N(C)C(=O)CN(C)C(=O)[C@H](CC)NC1=O [Cyclosporin L] | 0.5
8 | – | C/C=C/C[C@@H](C)[C@@H](O)[C@H]1C(=O)N[C@@H](CC)C(=O)N(C)CC(=O)N(C)[C@@H](CC(C)C)C(=O)N[C@@H](C(C)C)C(=O)N[C@@H](CC(C)C)C(=O)N[C@@H](C)C(=O)N[C@H](C)C(=O)N(C)[C@@H](CC(C)C)C(=O)N(C)[C@@H](CC(C)C)C(=O)N(C)[C@@H](C(C)C)C(=O)N1C [Cyclosporin U] | 0.6

From patent US6620325B2, “Purification process for cyclosporin” (Novartis AG, priority 1996, dated 2003)
